“And” between values parts separate entries of the source, which are not always exact repeats. Equal entries are not always repeated.
Experiments:
[1] = PAMPA-BBB literature value; cited from earlier work
in vitro = experiment: in vitro; design: Papp at 16 h: dose or concentration left out as unconfirmed; settings: for Papp at 16 h: PAMPA
Protocol: Commercial drugs were purchased from Sigma (St. Louis, MO) and Alfa Aesar (Haverhill, MA). The porcine brain lipid (PBL) was obtained from Avanti Polar Lipids (Alabaster, AL). The donor microplate (PVDF membrane, pore size […]) and the acceptor microplate were both from Millipore (Darmstadt, Germany). The 96-well UV plate (COSTAR^@) was from Corning Incorporated (Harrodsburg, KY). The acceptor 96-well microplate was filled with 300 μL of PBS/EtOH (7:3), and the filter membrane was impregnated with 4 μL of PBL in dodecane (20 mg/mL). […] The […] was carefully placed on the donor plate to form a sandwich, which was left undisturbed for 16 h at 25 °C. After incubation, the donor plate was carefully removed and the concentration of compound in the acceptor wells was determined using an UV plate reader (Flexstation^@ 3). Every sample was analyzed at five wavelengths, in four wells, in at least three independent runs, and the results are given as the mean ± SD. In each experiment, nine quality control standards of known BBB permeability were included to validate the analysis set.

[2] = target: T1, BuChE (from equine serum) (Equus caballus, UniProt P81908); experiment: biochemical; format: biochemical; settings: IC50 eqBuChE, means ± SD of three experiments
T1 construct: butyrylcholinesterase (BuChE, E.C. 3.1.1.8) from equine serum and human serum; purchased Sigma-Aldrich (St. Louis, MO); host or cells: equine serum

AChE (from electric eel) = target: T2, AChE (from electric eel) (Electrophorus electricus, UniProt O42275); experiment: biochemical; settings: means ± SD of three experiments; read-out: IC50 eeAChE
T2 construct: Acetylcholinesterase (E.C. 3.1.1.7) from electric eel and human erythrocytes; purchased Sigma-Aldrich (St. Louis, MO); host or cells: electric eel (natural source)

Aβ (1–42) [3] = target: T3, Aβ (1–42) (Homo sapiens, UniProt P05067); experiment: Inhibition of Cu^2+-induced Aβ (1–42) aggregation (ThT assay); format: biochemical; settings: read-out: Inhibition of Cu^2+-induced Aβ aggregation
Protocol: The mixture of the peptide (10 μL, 25 μM, final concentration) with or without copper (10 μL, 25 μM, final concentration) and the test compound (10 μL, 50 μM, final concentration) were incubated at 37 °C for 24 h. The 20 μL of the sample was diluted to a final volume of 200 μL with […] glycine–NaOH buffer (pH 8.0) containing ThT (5 μM). The detection method was the same as that of self-induced Aβ aggregation experiment.

human AChE = target: T4, human AChE (Homo sapiens, UniProt P22303); experiment: biochemical; settings: means ± SD of three experiments; read-out: IC50 hAChE
T4 construct: Acetylcholinesterase (E.C. 3.1.1.7) from electric eel and human erythrocytes; purchased Sigma-Aldrich (St. Louis, MO); host or cells: human erythrocytes

brain AChE = brain AChE (Mus musculus, UniProt P21836); settings: mice, 10 μmol/kg i.p., sacrificed 10 min after administration
Aβ (1–42) [4] = target: T3, Aβ (1–42); experiment: Inhibition of Aβ (1–42) self-induced aggregation (Thioflavin T assay); settings: read-out: Aβ (1–42) aggregation inhibition (%)
PC12 cells [5] = experiment: Neuroprotection against Aβ (1–42)-induced toxicity in PC12 cells (MTT assay); format: cell-based; settings: Rattus norvegicus, PC-12, Aβ (1–42) 25 μM, 24 h, Aβ alone 44.2%, read-out: Cell viability (% of control) with Aβ (1–42)
Protocol: PC 12 cells were grown in RPMI-1640 medium containing 10% (v/v) foetal bovine serum, 100 U penicillin/mL and […] streptomycin/mL under 5% CO2 at 37 °C. The culture media were changed every other day. After pretreatment with different concentrations of test compound (0, 6, 12.5, 25, 50 μM) for 2 h, PC 12 cells were incubated with 25 μM of Aβ (1–42) for 24 h. The cell viability was evaluated using MTT assay. Briefly, the cells were treated with 10 μL MTT (5 mg/mL in PBS) for 4 h at 37 °C. Then, 200 μL of DMSO was added to dissolve the dark blue formazan crystals formed in intact cells, and the absorbance at 570 nm was detected by a microplate reader. PC12 cells were cultured without test compound or Aβ (1–42) as control group and the results were expressed by percentage of control.

EeAChE = EeAChE (Electrophorus electricus, UniProt O42275); experiment: Kinetic analysis of AChE inhibition (Lineweaver–Burk plots); settings: 5l at 30.0, 15.0 and 7.5 nM
PC12 cells [6] = experiment: Cytotoxicity in PC12 cells (MTT assay); format: cell-based; settings: 3–50 μM, 24 h
Protocol: The toxicity effect of the tested compounds on the rat pheochromocytoma (PC12) cells was examined according to previously reported methods. PC 12 cells was obtained from the Cell Bank of the Chinese Academy of Sciences (Shanghai, China) and routinely grown at 37 °C in a humidified incubator with 5% CO2 in Dulbecco’s modified Eagle’s medium (DMEM) supplemented with 10% bovine calf serum, 100 units per mL penicillin, and 100 units per mL of streptomycin. Cells were sub-cultured in 96-well plates at a seeding density of 5000 cells per well and allowed to adhere and grow. When cells reached the required confluence, they were placed into serum-free medium and treated with compound 5l. Twenty-four hours later the survival of cells was determined by MTT assay. Briefly, after incubation with 20 μL of MTT at 37 °C for 4 h, living cells containing MTT formazan crystals were solubilized in 200 μL DMSO. The absorbance of each well was measured using a microculture plate reader with a test wavelength of 570 nm and a reference wavelength of 630 nm. Results are expressed as the mean ± SD of three independent experiments.

T1 sequence (P81908 whole entry): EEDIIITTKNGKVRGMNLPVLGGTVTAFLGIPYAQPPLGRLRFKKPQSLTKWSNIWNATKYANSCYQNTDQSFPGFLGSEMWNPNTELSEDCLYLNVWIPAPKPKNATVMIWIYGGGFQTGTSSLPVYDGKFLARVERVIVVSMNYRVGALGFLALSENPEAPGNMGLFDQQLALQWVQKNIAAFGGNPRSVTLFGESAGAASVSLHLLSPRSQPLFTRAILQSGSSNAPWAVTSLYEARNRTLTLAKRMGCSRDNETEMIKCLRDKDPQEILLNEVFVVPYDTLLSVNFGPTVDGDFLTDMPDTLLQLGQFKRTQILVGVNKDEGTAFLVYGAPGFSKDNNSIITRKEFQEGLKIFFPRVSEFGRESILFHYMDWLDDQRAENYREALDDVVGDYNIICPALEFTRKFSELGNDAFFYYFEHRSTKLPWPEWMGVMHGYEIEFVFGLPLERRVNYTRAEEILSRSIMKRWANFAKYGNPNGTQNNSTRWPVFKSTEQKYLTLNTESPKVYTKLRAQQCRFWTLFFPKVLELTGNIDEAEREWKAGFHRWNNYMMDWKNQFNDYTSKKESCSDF
T3 sequence (P05067 672-713): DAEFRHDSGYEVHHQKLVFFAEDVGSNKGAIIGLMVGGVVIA
T4 sequence (P22303 other isoform, or with tags, fused parts or gaps): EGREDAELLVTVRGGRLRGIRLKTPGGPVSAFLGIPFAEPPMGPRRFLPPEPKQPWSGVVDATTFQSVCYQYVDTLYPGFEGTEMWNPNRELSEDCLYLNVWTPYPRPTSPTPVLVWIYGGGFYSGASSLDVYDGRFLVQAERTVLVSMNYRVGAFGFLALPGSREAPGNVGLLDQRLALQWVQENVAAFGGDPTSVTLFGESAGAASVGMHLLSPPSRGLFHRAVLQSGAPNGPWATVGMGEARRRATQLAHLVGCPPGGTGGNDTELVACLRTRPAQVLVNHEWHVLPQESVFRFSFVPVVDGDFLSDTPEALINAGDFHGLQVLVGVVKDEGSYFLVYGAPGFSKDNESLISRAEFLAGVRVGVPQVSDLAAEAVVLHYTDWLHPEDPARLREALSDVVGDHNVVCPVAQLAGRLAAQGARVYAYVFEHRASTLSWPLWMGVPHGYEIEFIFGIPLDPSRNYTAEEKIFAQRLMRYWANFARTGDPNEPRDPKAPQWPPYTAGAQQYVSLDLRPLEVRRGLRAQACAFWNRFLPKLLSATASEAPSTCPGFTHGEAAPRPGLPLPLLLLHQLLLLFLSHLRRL
EeAChE, sequence (O42275 24-633): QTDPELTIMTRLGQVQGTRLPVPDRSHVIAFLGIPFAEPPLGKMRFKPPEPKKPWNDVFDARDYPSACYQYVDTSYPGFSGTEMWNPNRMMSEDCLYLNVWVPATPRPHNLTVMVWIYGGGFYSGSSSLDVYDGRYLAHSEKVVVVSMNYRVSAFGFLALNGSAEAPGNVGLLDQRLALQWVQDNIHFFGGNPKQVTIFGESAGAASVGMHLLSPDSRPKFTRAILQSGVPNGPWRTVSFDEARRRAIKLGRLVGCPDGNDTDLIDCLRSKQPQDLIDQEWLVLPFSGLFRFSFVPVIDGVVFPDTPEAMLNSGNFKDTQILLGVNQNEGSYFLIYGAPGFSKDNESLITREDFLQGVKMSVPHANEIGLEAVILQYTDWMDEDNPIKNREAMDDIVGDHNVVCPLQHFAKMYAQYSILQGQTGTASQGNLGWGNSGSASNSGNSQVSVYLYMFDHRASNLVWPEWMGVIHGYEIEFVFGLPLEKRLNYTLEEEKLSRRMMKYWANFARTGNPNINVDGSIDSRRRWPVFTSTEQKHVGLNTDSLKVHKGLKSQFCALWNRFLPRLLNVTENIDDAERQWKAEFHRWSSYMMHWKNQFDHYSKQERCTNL
T2 sequence (O42275 24-633): as above
brain AChE, sequence (P21836 32-614): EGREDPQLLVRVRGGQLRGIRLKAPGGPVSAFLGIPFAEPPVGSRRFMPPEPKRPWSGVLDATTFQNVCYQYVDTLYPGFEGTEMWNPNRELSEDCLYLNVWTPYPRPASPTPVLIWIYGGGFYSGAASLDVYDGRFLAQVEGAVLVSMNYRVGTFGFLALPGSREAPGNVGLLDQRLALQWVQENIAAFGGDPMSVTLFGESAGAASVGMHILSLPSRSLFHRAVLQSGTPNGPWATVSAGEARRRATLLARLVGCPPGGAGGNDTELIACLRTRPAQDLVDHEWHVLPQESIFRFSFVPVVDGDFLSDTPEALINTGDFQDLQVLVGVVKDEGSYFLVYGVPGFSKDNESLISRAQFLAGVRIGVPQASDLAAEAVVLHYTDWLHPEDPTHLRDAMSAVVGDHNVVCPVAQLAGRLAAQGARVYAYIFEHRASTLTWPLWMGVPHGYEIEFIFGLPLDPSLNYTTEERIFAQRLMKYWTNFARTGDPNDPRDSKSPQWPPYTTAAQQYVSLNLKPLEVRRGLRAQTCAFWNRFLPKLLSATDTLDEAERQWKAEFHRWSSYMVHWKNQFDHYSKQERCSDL

SMILES	Permeability Pe, Bibl [1] [×10⁻⁶ cm/s]	Papp at 16 h (in vitro) [×10⁻⁶ cm/s]	IC50 [2]	ABTS assay (trolox equiv)	IC50 (AChE (from electric eel)) [nM]	inhibition at 50 µM (Aβ (1–42) [3]) [%]	IC50 (human AChE) [nM]	Inhibition (%) of brain AChE activity versus untreated controls (brain AChE) [%]	inhibition at 20 µM (Aβ (1–42) [4]) [%]	viability at 6 µM (PC12 cells [5]; 6 μM compound) [%]	viability at 12.5 µM (PC12 cells [5]; 12.5 μM compound) [%]	viability at 25 µM (PC12 cells [5]; 25 μM compound) [%]	viability at 50 µM (PC12 cells [5]; 50 μM compound) [%]	BBB permeation prediction class (in vitro; PAMPA-BBB)	Type of AChE inhibition (EeAChE)	Effect on cell viability (toxicity) (PC12 cells [6])
NCCc1ccc(O)c(O)c1 [Dopamine, reference compound]	0.2	0.17														
COc1ccc(/C=C/C(=O)Nc2cc[n+](Cc3ccc(F)cc3)cc2)cc1OC.[Br-] [Compound 5l, (E)-4-(3-(3,4-dimethoxyphenyl)acrylamido)-1-(4-fluorobenzyl) pyridin-1-ium bromide]		2.89 ± 0.37	2500 nM and 2600 nM	N (N means <0.05)	12.1 ± 1.8	68.6	8.6 ± 0.9	53.9 ± 2.9	64.7 ± 1.6	47.6 ± 4.2	57.5 ± 1.4	63.2 ± 3.5	66.6 ± 2.5	CNS+	mixed-type inhibitor	did not significantly affect cell viability

From article PMC6009898 (Journal of Enzyme Inhibition and Medicinal Chemistry, 2017)
